Where two headings read alike, the source gives them in different places.
Key:
Type in all cases: biochemical
β-secretase(BACE) [1] = target: T1, β-secretase(BACE) (Homo sapiens, UniProt P56817); experiment: BACE Assay-2 (FS1 substrate, IC50 and Ki); conditions: procedure of Example 159, FS1 substrate; for Ki: read-out: Ki μM (159)
T1 construct: purchased Panvera

β-secretase(BACE) [2] = target: T1, β-secretase(BACE); experiment: BACE % Inhibition Assay ((Aedens)-[…]-(Dabcyl K-amide) substrate)
Experimental: The substrate stock solution was prepared in DMSO as a 10 mg/mL solution. The substrate working solution was prepared by diluting the 10 mg/mL stock solution with substrate assay buffer to a final concentration of 300 μg/mL. The β-secretase (BACE) working solution was prepared by diluting a 0.83 mg/mL BACE stock solution with enzyme assay buffer to a final concentration of 4 μg/mL.
Test compounds were dissolved in DMSO to 10 mM.
The screening procedure for this assay was as follows: 15 μL of BACE working solution was pipetted into each well of a 96-well plate. To each well was then pipetted 2 μL of test compound at the selected concentration. Test compound and BACE were then mixed with a pipettor and incubated for 20 min at room temperature. To each well was then added 10 μL of the substrate working solution. The plates were then incubated for 1 hour at room temperature.
The procedure for the blank was as follows. 15 μL of assay buffer was pipetted into each well to be used as a blank control. To each well was then added 2 μL of vehicle and 10 μL of substrate working solution. The plates were then incubated for 1 hour at room temperature.
The procedure for the positive control was as follows: 15 μl of BACE working solution was pipetted into each well to be used as a positive control. To each well was then pipetted 2 μL of vehicle. Vehicle and BACE were then mixed with a pipettor and incubated for 20 min at room temperature. To each well was then added 10 μL of the substrate working solution. The plates were then incubated for 1 hour at room temperature.
For test compounds, % inhibition was determined at each concentration as follows: […]

β-secretase(BACE) [3] = target: T1, β-secretase(BACE); experiment: BACE Assay-1 (MCA-substrate, IC50); conditions: procedure of Example 158; read-out: IC50 μM (158)
In short: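 Human BACE (work solution 10 μg/mL) with MCA-peptide substrate (stock 2.0 mg/mL) in 0.05 M citrate buffer, pH 5.0, with PEG8000. Fluorescence read at T0 and T60; compounds tested at multiple concentrations and IC50 calculated from these readings.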

β-secretase(BACE) [4] = target: T1, β-secretase(BACE); experiment: BACE FS1% Inhibition Assay; conditions: FS1 substrate
In short: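 Human BACE (4 μg/mL working solution) preincubated 20 min at room temperature with compound, then FS1 substrate (300 μg/mL working solution) added and incubated 1 h at room temperature. Percent inhibition calculated at each compound concentration against blank and vehicle controls.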

[5] = 3 μM test compound, % error ±10%
[6] = 10 μM test compound, % error ±10%
[7] = 3 μM test compound, % error ±10%, read-out: % Inhibition
[8] = 10 μM test compound, % error ±10%, read-out: % Inhibition
[9] = 0.3 μM test compound, % error ±10%
[10] = 1 μM test compound, % error ±10%

T1 sequence (P56817 46-501): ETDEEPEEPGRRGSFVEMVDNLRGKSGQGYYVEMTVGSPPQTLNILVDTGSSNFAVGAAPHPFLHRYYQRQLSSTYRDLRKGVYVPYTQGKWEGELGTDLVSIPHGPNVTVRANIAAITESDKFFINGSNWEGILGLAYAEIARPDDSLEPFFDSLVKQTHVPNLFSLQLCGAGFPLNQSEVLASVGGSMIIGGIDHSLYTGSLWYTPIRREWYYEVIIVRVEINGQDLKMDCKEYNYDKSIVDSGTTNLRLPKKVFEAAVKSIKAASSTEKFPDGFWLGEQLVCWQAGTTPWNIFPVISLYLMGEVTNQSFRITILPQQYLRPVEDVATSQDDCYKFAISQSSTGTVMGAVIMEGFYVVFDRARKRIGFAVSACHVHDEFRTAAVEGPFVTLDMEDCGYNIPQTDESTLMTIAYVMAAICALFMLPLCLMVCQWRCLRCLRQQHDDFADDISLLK

3-(2-Amino-6-phenoxy-4H-quinazolin-3-yl)-pentanedioic acid bis-(cyclohexyl-methyl-amide) [Compound 107]
IC50 (β-secretase(BACE) [1]): 4.58 µM
Ki (β-secretase(BACE) [1]): 1.2 µM
% Inhibition (β-secretase(BACE) [2]; [5]): 48%
% Inhibition (β-secretase(BACE) [2]; [6]): 78%
IC50 (β-secretase(BACE) [3]): 0.82 µM

NC1=Nc2ccc(C(=O)c3ccccc3)cc2CN1CCNC(=O)C1CCCCC1 [Compound 7, Cyclohexanecarboxylic acid [2-(2-amino-6-benzoyl-4H-quinazolin-3-yl)-ethyl]-amide]
IC50 (β-secretase(BACE) [1]): 5.3 µM
Ki (β-secretase(BACE) [1]): 0.24 µM
inhibition at 3 µM (β-secretase(BACE) [2]; [7]): 76%
inhibition at 10 µM (β-secretase(BACE) [2]; [8]): 87%
IC50 (β-secretase(BACE) [3]): 1.4 µM

CCCN1Cc2cc(Oc3cccc(NC(=O)C4CCCCC4)c3)ccc2N=C1N [Compound 44]
% Inhibition (β-secretase(BACE) [2]; [5]): <30%
% Inhibition (β-secretase(BACE) [2]; [6]): 31%

CCCN1Cc2cc(Oc3cccc(N(C#N)CC4CCCCC4)c3)ccc2N=C1N [Compound 56]
% Inhibition (β-secretase(BACE) [2]; [5]): 35%
% Inhibition (β-secretase(BACE) [2]; [6]): 79%

CN(C(=O)c1cccc(CN2Cc3cc(Oc4ccccc4)ccc3N=C2N)c1)C1CCCCC1 [Compound 62, 3-(2-Amino-6-phenoxy-4H-quinazolin-3-ylmethyl)-N-cyclohexyl-N-methyl-benzamide]
inhibition at 3 µM (β-secretase(BACE) [2]): 62%
inhibition at 10 µM (β-secretase(BACE) [2]): 82%
% Inhibition (β-secretase(BACE) [2]; 3 µM): 73%
% Inhibition (β-secretase(BACE) [2]; 10 µM): 82%

CCOC(=O)CCN1Cc2cc(Oc3ccccc3)ccc2N=C1N [Compound 65]
% Inhibition (β-secretase(BACE) [2]; [5]): <30%
% Inhibition (β-secretase(BACE) [2]; [6]): <30%

CN(C(=O)[C@@H]1CCC[C@@H]1N1Cc2cc(Oc3ccccc3)ccc2N=C1N)C1CCCCC1 [Compound 72]
% Inhibition (β-secretase(BACE) [2]; [5]): <30%
% Inhibition (β-secretase(BACE) [2]; [6]): <30%

CN(C(=O)[C@@H]1CC[C@H](N2Cc3cc(Oc4ccccc4)ccc3N=C2N)C1)C1CCCCC1 [Compound 77]
% Inhibition (β-secretase(BACE) [2]; [5]): <30%
% Inhibition (β-secretase(BACE) [2]; [6]): <30%

CCN(CC)CCN1Cc2cc(Oc3ccccc3)ccc2N=C1N [Compound 79]
% Inhibition (β-secretase(BACE) [2]; [5]): <30%
% Inhibition (β-secretase(BACE) [2]; [6]): <30%

CN(C(=O)[C@H]1CCCC[C@H]1N1Cc2cc(Oc3ccccc3)ccc2N=C1N)C1CCCCC1 [Compound 81]
% Inhibition (β-secretase(BACE) [2]; [5]): <30%
% Inhibition (β-secretase(BACE) [2]; [6]): <30%

CCCC(CCC(=O)N(C)C1CCCCC1)N1Cc2cc(Oc3ccccc3)ccc2N=C1N (stereo not drawn) [Compound 86]
% Inhibition (β-secretase(BACE) [2]; [5]): 72%
% Inhibition (β-secretase(BACE) [2]; [6]): 80%

CN(C(=O)[C@@H]1CCCC[C@@H]1N1Cc2cc(Oc3ccccc3)ccc2N=C1N)C1CCCCC1 [Compound 87]
% Inhibition (β-secretase(BACE) [2]; [5]): <30%
% Inhibition (β-secretase(BACE) [2]; [6]): <30%

CN(C(=O)[C@@H]1CCCN1C(=O)CN1Cc2cc(Oc3ccccc3)ccc2N=C1N)C1CCCCC1 [Compound 88]
% Inhibition (β-secretase(BACE) [2]; [5]): <30%
% Inhibition (β-secretase(BACE) [2]; [6]): <30%

CN(C(=O)c1cc(CN2Cc3cc(Oc4ccccc4)ccc3N=C2N)ccn1)C1CCCCC1 [Compound 89]
IC50 (β-secretase(BACE) [1]): 0.4 µM
inhibition at 3 µM (β-secretase(BACE) [2]; [7]): 77%
inhibition at 10 µM (β-secretase(BACE) [2]; [8]): 81%

CC(C)(C)OC(=O)N1CCC(N2Cc3cc(Oc4ccccc4)ccc3N=C2N)C1 (stereo not drawn) [Compound 93]
% Inhibition (β-secretase(BACE) [2]; [5]): <30%
% Inhibition (β-secretase(BACE) [2]; [6]): <30%

CN(C(=O)c1cccc(N2Cc3cc(Oc4ccccc4)ccc3N=C2N)c1)C1CCCCC1 [Compound 94]
% Inhibition (β-secretase(BACE) [2]; [5]): <30%
% Inhibition (β-secretase(BACE) [2]; [6]): <30%

CN(C(=O)c1ccc(CN2Cc3cc(Oc4ccccc4)ccc3N=C2N)cc1)C1CCCCC1 [Compound 97]
% Inhibition (β-secretase(BACE) [2]; [5]): <30%
% Inhibition (β-secretase(BACE) [2]; [6]): 53%

CN(C(=O)C1CCC(CN2Cc3cc(Oc4ccccc4)ccc3N=C2N)CC1)C1CCCCC1 (stereo not drawn) [Compound 100]
% Inhibition (β-secretase(BACE) [2]; [5]): <30%
% Inhibition (β-secretase(BACE) [2]; [6]): <30%

CC(C)(C)OC(=O)NCCCCN1Cc2cc(Oc3ccccc3)ccc2N=C1N [Compound 101]
IC50 (β-secretase(BACE) [1]): 11 µM
inhibition at 3 µM (β-secretase(BACE) [2]; [7]): 45%
inhibition at 10 µM (β-secretase(BACE) [2]; [8]): 64%

CC(C)(C)OC(=O)NCCCN1Cc2cc(Oc3ccccc3)ccc2N=C1N [Compound 103]
IC50 (β-secretase(BACE) [1]): 3.6 µM
Ki (β-secretase(BACE) [1]): 4 µM
inhibition at 3 µM (β-secretase(BACE) [2]; [7]): 56%
inhibition at 10 µM (β-secretase(BACE) [2]; [8]): 74%

CCCC(CCCC(=O)N(CC)C1CCCCC1)N1Cc2cc(Oc3ccccc3)ccc2N=C1N (stereo not drawn) [Compound 105]
% Inhibition (FS) 0.3 μM (β-secretase(BACE) [4]; 0.3 μM test compound): <30%
% Inhibition (FS) 1 μM (β-secretase(BACE) [4]; 1 μM test compound): <30%
% Inhibition (FS) 3 μM (β-secretase(BACE) [4]; 3 μM test compound): <30%
% Inhibition (β-secretase(BACE) [2]; [5]): <30%
% Inhibition (β-secretase(BACE) [2]; [6]): <30%

Cc1ccc(S(=O)(=O)NCCN2Cc3cc(Oc4ccccc4)ccc3N=C2N)cc1 [Compound 109]
% Inhibition (β-secretase(BACE) [2]; [5]): <30%
% Inhibition (β-secretase(BACE) [2]; [6]): 58%

CC(C)(C)C(=O)NCC(C1CCCCC1)N1Cc2cc(Oc3ccccc3)ccc2N=C1N (stereo not drawn) [Compound 317]
% Inhibition (β-secretase(BACE) [2]; [9]): <30%
% Inhibition (β-secretase(BACE) [2]; [10]): 66%
% Inhibition (β-secretase(BACE) [2]; [5]): 107%

NC1=Nc2ccc(Oc3ccccc3)cc2CN1Cc1cccc(CNC(=O)C23CC4CC(CC(C4)C2)C3)c1 [Compound 336]
% Inhibition (β-secretase(BACE) [2]; [9]): <30%
% Inhibition (β-secretase(BACE) [2]; [10]): <30%
% Inhibition (β-secretase(BACE) [2]; [5]): <30%

NC1=Nc2ccc(Oc3ccccc3)cc2CN1Cc1cccc(CNC(=O)C(c2ccccc2)c2ccccc2)c1 [Compound 337]
% Inhibition (β-secretase(BACE) [2]; [9]): <30%
% Inhibition (β-secretase(BACE) [2]; [10]): <30%
% Inhibition (β-secretase(BACE) [2]; [5]): <30%

CCCC(CCC)C(=O)NCc1cccc(CN2Cc3cc(Oc4ccccc4)ccc3N=C2N)c1 [Compound 338]
% Inhibition (β-secretase(BACE) [2]; [9]): <30%
% Inhibition (β-secretase(BACE) [2]; [10]): <30%
% Inhibition (β-secretase(BACE) [2]; [5]): <30%

CCCCC(CC)C(=O)NCc1cccc(CN2Cc3cc(Oc4ccccc4)ccc3N=C2N)c1 (stereo not drawn) [Compound 339]
% Inhibition (β-secretase(BACE) [2]; [9]): <30%
% Inhibition (β-secretase(BACE) [2]; [10]): <30%
% Inhibition (β-secretase(BACE) [2]; [5]): <30%

CCCCC(CC)C(=O)NCC(c1ccccc1)N1Cc2cc(Oc3ccccc3)ccc2N=C1N (stereo not drawn) [Compound 341]
% Inhibition (β-secretase(BACE) [2]; [9]): <30%
% Inhibition (β-secretase(BACE) [2]; [10]): <30%
% Inhibition (β-secretase(BACE) [2]; [5]): 72%

NC1=Nc2ccc(Oc3ccccc3)cc2CN1CCC(=O)NC12CC3CC(CC(C3)C1)C2 [Compound 365]
Ki (β-secretase(BACE) [1]): 0.1 µM
inhibition at 0.3 µM (β-secretase(BACE) [2]; [9]): < 30%
inhibition at 1 µM (β-secretase(BACE) [2]; [10]): 86%
inhibition at 3 µM (β-secretase(BACE) [2]; [7]): 113%

NC1=Nc2ccc(Oc3ccccc3)cc2CN1C(CNC(=O)CCC1CCCC1)C1CCCCC1 (stereo not drawn) [Compound 366]
Ki (β-secretase(BACE) [1]): 0.067 µM
inhibition at 0.3 µM (β-secretase(BACE) [2]; [9]): 64%
inhibition at 1 µM (β-secretase(BACE) [2]; [10]): 113%
inhibition at 3 µM (β-secretase(BACE) [2]; [7]): 119%

CC(C)(C)OC(=O)NCC(C1CCCCC1)N1Cc2cc(Oc3ccccc3)ccc2N=C1N (stereo not drawn) [Compound 367]
Ki (β-secretase(BACE) [1]): 0.12 µM
inhibition at 0.3 µM (β-secretase(BACE) [2]; [9]): < 30%
inhibition at 1 µM (β-secretase(BACE) [2]; [10]): 80%
inhibition at 3 µM (β-secretase(BACE) [2]; [7]): 111%

CC(C)CCC(=O)NCC(C1CCCCC1)N1Cc2cc(Oc3ccccc3)ccc2N=C1N (stereo not drawn) [Compound 388]
% Inhibition (β-secretase(BACE) [2]; [9]): 107%
% Inhibition (β-secretase(BACE) [2]; [10]): 119%
% Inhibition (β-secretase(BACE) [2]; [5]): 119%

CC(C)CC(=O)NCC(C1CCCCC1)N1Cc2cc(Oc3ccccc3)ccc2N=C1N (stereo not drawn) [Compound 389]
Ki (β-secretase(BACE) [1]): 0.028 µM
inhibition at 0.3 µM (β-secretase(BACE) [2]; [9]): 85%
inhibition at 1 µM (β-secretase(BACE) [2]; [10]): 112%
inhibition at 3 µM (β-secretase(BACE) [2]; [7]): 120%

NC1=Nc2ccc(Oc3ccccc3)cc2CN1C(CNC(=O)C1(c2ccc(Cl)cc2)CCCC1)C1CCCCC1 (stereo not drawn) [Compound 390]
% Inhibition (β-secretase(BACE) [2]; [9]): <30%
% Inhibition (β-secretase(BACE) [2]; [10]): 50%
% Inhibition (β-secretase(BACE) [2]; [5]): 102%

From patent US8383637B2, “2-amino-quinazoline derivatives useful as inhibitors of β-secretase (BACE)” (Jansssen Pharmaceutica N.V., priority 2004, dated 2013)
